Among the test systems are SF-295 CNS; RXF 393 renal; BT-549 breast; MDA-MB-231 breast; TK-10 renal; CAKI-1 renal; COLO 205 colon; SK-MEL-5 melanoma; NCI/ADR-RES ovarian; NCI-H460 lung.
Test in all cases: NCI tumour cell line growth inhibition, 48 h

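96-well plates; 48 h exposure; 5 concentrations. Endpoints by linear interpolation between flanking doses. Not reached: highest tested concentration assigned. TGI denotes the concentration required for complete inhibition of growth.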 Where a SMILES comes first, the peptide text is derived from it. The star is where a group is joined. Cbz = O=C(OCc1ccccc1)* A value given as a limit tells only on which side of the number the result lay.

Regarding `COc1ccc(C(OCC2OC(n3cc(C)c(=O)[nH]c3=O)CC2n2cc(Cn3cc(Cl)c(=O)[nH]c3=O)nn2)(c2ccccc2)c2ccccc2)cc1` (stereo unspecified), the TGI in the experiment on SF-295 CNS, with RXF 393 renal, in the experiment on BT-549 breast, in the experiment with MDA-MB-231 breast, with TK-10 renal and with CAKI-1 renal was greater than 100 µM in each case. In addition, the TGI with COLO 205 colon, in the experiment on SK-MEL-5 melanoma and in the experiment with NCI/ADR-RES ovarian was greater than 100 µM throughout.
Turning to `O=C(O)CCC(NC(=O)OCc1ccccc1)C(=O)NC(Cc1cnc[nH]1)C(=O)O` (stereo not drawn) (Cbz-Glu-His-OH; configuration not given here), the TGI in the experiment on SF-295 CNS, in the experiment on RXF 393 renal, in the experiment on BT-549 breast, in the experiment on MDA-MB-231 breast, in the experiment with NCI-H460 lung and in the experiment with TK-10 renal was greater than 100 µM in each case. In addition, the TGI in the experiment on CAKI-1 renal, with COLO 205 colon, in the experiment on SK-MEL-5 melanoma and with NCI/ADR-RES ovarian was greater than 100 µM each time.
As to `N#CCCN(C(=O)Nc1ccccc1)[C@H]1CCCC[C@@H]1N(C(=O)Nc1ccccc1)c1ccccc1`, the TGI in the experiment on SF-295 CNS, in the experiment with RXF 393 renal, in the experiment with BT-549 breast, in the experiment with MDA-MB-231 breast, in the experiment on NCI-H460 lung and with TK-10 renal was greater than 100 µM throughout. Also, the TGI with CAKI-1 renal, with COLO 205 colon, with SK-MEL-5 melanoma and in the experiment with NCI/ADR-RES ovarian was greater than 100 µM throughout.
For the compound `CSc1nc(Nc2cccc(C(F)(F)F)c2)c2c(N)nn(C)c2n1`, the TGI in the experiment on SF-295 CNS, in the experiment on RXF 393 renal, in the experiment with BT-549 breast, with MDA-MB-231 breast, in the experiment with NCI-H460 lung and in the experiment with TK-10 renal was greater than 100 µM in each case. The TGI in the experiment with CAKI-1 renal, in the experiment with COLO 205 colon, in the experiment on SK-MEL-5 melanoma and with NCI/ADR-RES ovarian was greater than 100 µM each time.
As to `CN=C(N=Nc1c(O)[nH]c2ccccc12)SCC(=O)c1ccc(Br)cc1`, the TGI in the experiment on SF-295 CNS is 49.6 µM; in the experiment on RXF 393 renal it was 19.2 µM; in the experiment on BT-549 breast, greater than 100 µM; in the experiment on MDA-MB-231 breast, 19.8 µM; in the experiment with NCI-H460 lung it was greater than 38.3 µM; in the experiment with TK-10 renal, 37.7 µM. For the same compound, the TGI was greater than 65.5 µM with CAKI-1 renal, greater than 100 µM in the experiment on COLO 205 colon, greater than 93.2 µM with SK-MEL-5 melanoma and 27 µM in the experiment with NCI/ADR-RES ovarian.
In the case of `O=C1CCCC1CN1CCCC1` (stereo unspecified), the TGI was greater than 100 µM with SF-295 CNS; 3.09 µM in the experiment with BT-549 breast; 31.3 µM in the experiment with MDA-MB-231 breast; greater than 58.4 µM with NCI-H460 lung; 25.1 µM with TK-10 renal; 0.773 µM in the experiment with CAKI-1 renal. Also, the TGI is 8.74 µM in the experiment with COLO 205 colon, 31.9 µM in the experiment on SK-MEL-5 melanoma and 37.9 µM with NCI/ADR-RES ovarian.
As to `COC(=O)c1cc2ccc(N)nc2[nH]c1=O`, the TGI in the experiment on SF-295 CNS, in the experiment with RXF 393 renal, with BT-549 breast, with MDA-MB-231 breast, in the experiment with NCI-H460 lung and in the experiment on TK-10 renal was greater than 100 µM in each case. Moreover, the TGI with CAKI-1 renal, in the experiment on COLO 205 colon, in the experiment on SK-MEL-5 melanoma and in the experiment on NCI/ADR-RES ovarian was greater than 100 µM each time.
For the compound `CCOC(=O)CC[C@H](NC(=O)[C@H](N)Cc1ccc(N(CCCl)CCCl)cc1)C(=O)OCC`, the TGI was greater than 77.8 µM in the experiment on SF-295 CNS; 29.7 µM in the experiment with RXF 393 renal; greater than 65.3 µM in the experiment on BT-549 breast; greater than 58.8 µM with MDA-MB-231 breast; 17.3 µM with NCI-H460 lung; greater than 100 µM in the experiment on TK-10 renal. Besides, the TGI was greater than 37.1 µM in the experiment with CAKI-1 renal, 52.9 µM in the experiment with COLO 205 colon, 23.5 µM with SK-MEL-5 melanoma and 30.9 µM in the experiment with NCI/ADR-RES ovarian.
`CC(=O)c1[nH]c(NCc2ccccc2)c(C(=S)Nc2ccccc2)c1N`: the TGI in the experiment with SF-295 CNS worked out at 66 µM; in the experiment with RXF 393 renal, 35.6 µM; in the experiment with BT-549 breast, 64.7 µM; in the experiment with MDA-MB-231 breast it was 34.1 µM; in the experiment on NCI-H460 lung it was 56.5 µM; with TK-10 renal, 63.8 µM. Also, the TGI in the experiment on CAKI-1 renal is 98.2 µM; in the experiment with COLO 205 colon, greater than 100 µM; in the experiment with SK-MEL-5 melanoma, 34.9 µM; in the experiment with NCI/ADR-RES ovarian, greater than 100 µM.
Turning to `Cc1[nH]nc(C(F)(F)F)c1N=NN1CCOCC1`, the TGI in the experiment with SF-295 CNS amounted to 28.1 µM; with RXF 393 renal it was 25.1 µM; with BT-549 breast, 25.1 µM; with MDA-MB-231 breast it was 27.1 µM; with NCI-H460 lung, 17.1 µM; in the experiment on TK-10 renal, 26.7 µM. Also, the TGI in the experiment with CAKI-1 renal amounted to 4.67 µM; with COLO 205 colon it was 11.9 µM; in the experiment on SK-MEL-5 melanoma, 12.8 µM; in the experiment on NCI/ADR-RES ovarian it was 22.1 µM.
With `CC1CCC(=O)C(C(=O)CC2CC(=O)N(C)C(=O)C2)C1` (stereo unspecified), the TGI with SF-295 CNS, in the experiment on RXF 393 renal, in the experiment with BT-549 breast, in the experiment with MDA-MB-231 breast, in the experiment with NCI-H460 lung and with TK-10 renal was greater than 100 µM throughout. For the same compound, the TGI in the experiment on CAKI-1 renal, in the experiment with COLO 205 colon, in the experiment with SK-MEL-5 melanoma and in the experiment with NCI/ADR-RES ovarian was greater than 100 µM in each case.
On to `COc1ccc2cc(/C=N/NC(=O)Nc3ccccc3)ccc2c1`, for which the TGI in the experiment on SF-295 CNS, in the experiment with BT-549 breast, in the experiment with MDA-MB-231 breast, in the experiment with NCI-H460 lung, in the experiment on TK-10 renal and with CAKI-1 renal was greater than 100 µM in each case. For the same compound, the TGI with COLO 205 colon, in the experiment with SK-MEL-5 melanoma and in the experiment with NCI/ADR-RES ovarian was greater than 100 µM each time.
In the case of `CC(O)C1(CNc2cc(Cl)nc(N)n2)CCC1` (stereo unspecified), the TGI with SF-295 CNS, with RXF 393 renal, with BT-549 breast, in the experiment with MDA-MB-231 breast, with NCI-H460 lung and in the experiment with TK-10 renal was greater than 100 µM throughout. The TGI with CAKI-1 renal, with SK-MEL-5 melanoma and with NCI/ADR-RES ovarian was greater than 100 µM each time.
As to `CC#CCOC(=O)c1ccccc1OC(C)=O`, the TGI in the experiment with SF-295 CNS, with RXF 393 renal, in the experiment on BT-549 breast, in the experiment with MDA-MB-231 breast, in the experiment with NCI-H460 lung and in the experiment with TK-10 renal was greater than 100 µM each time. The TGI in the experiment with CAKI-1 renal, in the experiment on COLO 205 colon, in the experiment with SK-MEL-5 melanoma and in the experiment with NCI/ADR-RES ovarian was greater than 100 µM each time.

The values above are taken from PubChem BioAssay (NCI).
